For 2 molecules, IC50 and Activity results are on record in ChEMBL document CHEMBL5620406, “Synthesis and biological evaluation of novel pyrazole amides as potent mitochondrial complex I inhibitors” (Eur J Med Chem, 2023).

The term IC50 denotes the concentration that inhibits the measured activity by half.

Data set [1] deals with HCT-116. The data set is described as follows: Antiproliferative activity against human HCT-116 cells assessed as inhibition of cell growth incubated for 96 hrs by MTT assay. In kind it is functional, cell-based. The note with it: HCT-116, 96 h. On the technique in general: Formazan colour is commonly taken as a measure of viable cells.
Data set [2] has as its system KG-1. The data set is described as follows: Antiproliferative activity against human KG-1 cells assessed as inhibition of cell growth incubated for 96 hrs by MTT assay. In kind it is functional, cell-based. The note with it: KG-1, 96 h.
The nature of data set [3]: Toxicity in NOD-SCID mouse xenografted with human KG-1 cells assessed as effect on LDL level at 5 mg/kg, ip qd administered 5 consecutive days per week for 24 days. In kind it is organism-based. As to conditions: in vivo, 576 h, time 24 day.
For data set [4], the system named is HCT-116. The data set is described as follows: Induction of mitochondrial dysfunction in human HCT-116 cells assessed as attenuation of maximum oxygen consumption rate incubated for 24 hrs by Seahorse XFe24 analyzer. The note with it: dose 2-10 nM. In kind it is functional, cell-based.
Data set [5] has as its target Cytochrome P450 3A4 (Homo sapiens, UniProt P08684). Description: Inhibition of CYP3A4 in human liver microsomes incubated for 5 mins in presence of NADPH by LC/MS/MS analysis. In kind it is ADME, Microsome.
Data set [6] is described as follows: Acute toxicity in BALB/c mouse assessed as effect on GLU level at 68 mg/kg, ip measured on day 14. In kind it is organism-based. The note with it: in vivo, 336 h, time 14 day.
Data set [7] can be described thus: Toxicity in NOD-SCID mouse xenografted with human KG-1 cells assessed as effect on kidney damage at 5 mg/kg, ip qd administered 5 consecutive days per week for 24 days by H and E staining based analysis. The note with it: in vivo, 576 h, time 24 day. In kind it is organism-based.
Data set [8] in a line: Toxicity in NOD-SCID mouse xenografted with human KG-1 cells assessed as effect on UREA level at 5 mg/kg, ip qd administered 5 consecutive days per week for 24 days. In kind it is organism-based. As to conditions: in vivo, 576 h, time 24 day.

Sequence of Cytochrome P450 3A4 (P08684 whole entry): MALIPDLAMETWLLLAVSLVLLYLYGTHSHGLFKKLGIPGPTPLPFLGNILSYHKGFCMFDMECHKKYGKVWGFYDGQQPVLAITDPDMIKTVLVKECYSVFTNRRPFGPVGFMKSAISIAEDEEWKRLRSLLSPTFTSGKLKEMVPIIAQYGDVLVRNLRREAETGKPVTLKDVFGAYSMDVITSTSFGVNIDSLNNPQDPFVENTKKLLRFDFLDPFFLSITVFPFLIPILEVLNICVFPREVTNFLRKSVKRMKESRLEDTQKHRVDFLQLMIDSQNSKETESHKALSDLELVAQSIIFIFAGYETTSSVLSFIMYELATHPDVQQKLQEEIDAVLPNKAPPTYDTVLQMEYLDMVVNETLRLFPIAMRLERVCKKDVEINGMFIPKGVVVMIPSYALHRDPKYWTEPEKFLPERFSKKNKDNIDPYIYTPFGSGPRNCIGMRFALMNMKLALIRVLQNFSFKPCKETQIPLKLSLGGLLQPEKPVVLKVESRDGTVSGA

On to `Cc1cc(C(=O)Nc2ccc(OC(F)(F)F)cc2)nn1Cc1cccc(N2CCN(C(=O)C3CC3)CC2)c1`, for which the IC50 in data set [1] is 1.02 nM; in data set [2], 5.81 nM; in data set [5] it was 6990 nM. Further, the Activity result in data set [3] was “Non-Toxic”; in data set [4], “Dose-Dependent Effect”; in data set [6], “Non-Toxic”; in data set [7], “Non-Toxic”; in data set [8] it was “Non-Toxic”.
With `Cc1cc(C(=O)Nc2ccc(C(F)(F)F)cc2)nn1Cc1cccc(N2CCN(C(=O)C3CC3)CC2)c1`, the IC50 in data set [1] worked out at 0.52 nM; in data set [2], 3.9 nM; in data set [5], 7480 nM. Moreover, the Activity result in data set [3] is “Non-Toxic”; in data set [4], “Dose-Dependent Effect”; in data set [6], “Non-Toxic”; in data set [7] it was “Non-Toxic”; in data set [8] it was “Non-Toxic”.
